Legend:
[1] = target: T1, panel of 442 kinases (Homo sapiens, UniProt Q9NRP7); assay type: binding; conditions: kinase STK36; compound concentration 10 µM
T1 construct: purchased KINOMEscan
T1 sequence (Q9NRP7 1-1315): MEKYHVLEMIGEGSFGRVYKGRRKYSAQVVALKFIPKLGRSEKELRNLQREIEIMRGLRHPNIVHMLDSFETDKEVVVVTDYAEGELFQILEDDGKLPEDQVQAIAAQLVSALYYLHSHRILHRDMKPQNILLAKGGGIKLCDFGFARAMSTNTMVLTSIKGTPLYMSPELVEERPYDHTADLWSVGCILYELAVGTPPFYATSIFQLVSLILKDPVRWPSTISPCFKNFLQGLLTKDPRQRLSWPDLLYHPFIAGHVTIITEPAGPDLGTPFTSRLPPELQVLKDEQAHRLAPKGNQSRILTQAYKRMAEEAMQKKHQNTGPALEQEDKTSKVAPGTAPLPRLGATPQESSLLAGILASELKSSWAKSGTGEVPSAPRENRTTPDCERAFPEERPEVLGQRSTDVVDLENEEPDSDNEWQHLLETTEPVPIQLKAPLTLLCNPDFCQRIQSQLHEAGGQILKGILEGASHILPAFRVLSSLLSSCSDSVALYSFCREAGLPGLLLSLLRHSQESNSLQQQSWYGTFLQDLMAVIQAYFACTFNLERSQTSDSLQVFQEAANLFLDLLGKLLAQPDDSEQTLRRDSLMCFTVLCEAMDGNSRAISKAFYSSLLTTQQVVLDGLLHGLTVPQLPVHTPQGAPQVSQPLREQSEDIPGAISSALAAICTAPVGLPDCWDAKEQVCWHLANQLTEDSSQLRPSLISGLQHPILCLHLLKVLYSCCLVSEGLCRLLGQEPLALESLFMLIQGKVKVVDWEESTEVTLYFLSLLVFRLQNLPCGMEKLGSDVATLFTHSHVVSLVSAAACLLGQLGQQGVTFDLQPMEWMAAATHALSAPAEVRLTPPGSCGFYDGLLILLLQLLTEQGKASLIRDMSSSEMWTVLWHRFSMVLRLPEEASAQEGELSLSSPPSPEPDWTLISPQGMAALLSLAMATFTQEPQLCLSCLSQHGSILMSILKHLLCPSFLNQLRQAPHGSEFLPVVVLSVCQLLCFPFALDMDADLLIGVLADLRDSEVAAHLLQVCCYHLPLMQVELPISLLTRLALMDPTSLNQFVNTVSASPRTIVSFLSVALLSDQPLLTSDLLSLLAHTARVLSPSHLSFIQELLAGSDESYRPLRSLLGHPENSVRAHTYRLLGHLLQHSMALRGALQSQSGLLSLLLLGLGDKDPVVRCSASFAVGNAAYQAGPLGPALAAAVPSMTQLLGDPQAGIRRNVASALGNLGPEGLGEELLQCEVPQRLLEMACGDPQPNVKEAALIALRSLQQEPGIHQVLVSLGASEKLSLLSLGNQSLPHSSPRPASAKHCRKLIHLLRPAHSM
Source text: (§1) We assessed the selectivity of members of this scaffold using the KINOMEscan methodology across a near comprehensive panel of 442 kinases [[18,27]].

[2] = target: T2, panel of 442 kinases (Homo sapiens, UniProt O43353); assay type: binding; conditions: Compound Concentration 10 µM
T2 construct: purchased KINOMEscan
Source text: as §1

T2 sequence (O43353 whole entry): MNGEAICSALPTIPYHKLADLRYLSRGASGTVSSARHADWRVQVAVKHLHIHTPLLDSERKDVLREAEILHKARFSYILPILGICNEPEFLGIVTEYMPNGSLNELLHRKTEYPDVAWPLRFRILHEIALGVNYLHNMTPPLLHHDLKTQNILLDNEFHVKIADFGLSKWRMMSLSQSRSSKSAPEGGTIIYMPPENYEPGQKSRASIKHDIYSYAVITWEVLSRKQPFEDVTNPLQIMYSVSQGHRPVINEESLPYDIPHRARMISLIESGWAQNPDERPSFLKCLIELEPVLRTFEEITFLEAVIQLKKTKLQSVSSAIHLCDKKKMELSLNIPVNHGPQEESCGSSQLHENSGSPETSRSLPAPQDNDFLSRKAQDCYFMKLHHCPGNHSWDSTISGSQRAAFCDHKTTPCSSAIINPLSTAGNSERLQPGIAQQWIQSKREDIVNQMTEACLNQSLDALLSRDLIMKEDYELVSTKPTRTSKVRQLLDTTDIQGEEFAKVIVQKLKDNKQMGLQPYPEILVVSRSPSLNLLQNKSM

COc1cc(C(=O)N2CCC(N3CCN(C)CC3)CC2)ccc1Nc1ncc2c(n1)N(C)c1ccccc1C(=O)N2C [15 (LRRK2-IN-1)]
% Ctrl, STK36 [1]: 97 % Ctrl | KINOMEscan: RIPK2 [2]: 100

COc1cc(C(=O)N2CCC(N3CCN(C)CC3)CC2)ccc1Nc1ncc2c(n1)N1CCc3cccc(c31)C(=O)N2C [Compound 24]
KINOMEscan: RIPK2 [2]: 95

COc1cc(C(=O)N2CCC(N3CCN(C)CC3)CC2)ccc1Nc1ncc2c(n1)N(C1CCCC1)c1ccccc1C(=O)N2C [Compound 25, 11-cyclopentyl-2-((2-methoxy-4-(4-(4-methylpiperazin-1-yl)piperidine-1-carbonyl)phenyl)amino)-5-methyl-5H-benzo[e]pyrimido[5,4-b][1,4]diazepin-6(11H)-one]
% Ctrl, STK36 [1]: 96 % Ctrl | KINOMEscan: RIPK2 [2]: 87

CCOc1cc(C(=O)N2CCC(N3CCN(C)CC3)CC2)ccc1Nc1ncc2c(n1)N(C1CCCC1)c1ccccc1C(=O)N2C [Compound 26]
% Ctrl, STK36 [1]: 99 % Ctrl | KINOMEscan: RIPK2 [2]: 100
